Laboratory results from patent US20260000670A1 (priority 2022, published 2026).

Tests used:
mice = assay: anti-AAV8 IgM and IgG titers, 1-week vs 2-week dasatinib treatment in mice; format: in vivo
Protocol: FIG. 7: In vivo study to assess the impact of prolonging the dasatinib treatment. All mouse groups, except Group 1, were immunized on day 1 with an i.v. injection of AAV8-hSeap (1e12 vg/kg). Four groups received an i.v. injection of AAV8-FactorIX (3e13 vg/kg) on day 43. Concomitantly to the first AAV administration, Groups 3 and 4 were treated with dasatinib for either 1 or 2 weeks, respectively. Dasatinib was administered at the dose of 50 mg/kg per oral gavage, twice per day and starting 1 hr before the first AAV treatment.
FIGS. 8A-8B: Prolongation of dasatinib treatment from 1 week to 2 weeks improves the inhibition of IgM formation to AAV8. In the experiment described in FIG. 8A and FIG. 8B anti-AAV8 IgM titers (median+/−SD) were measured in each mouse group from day 0 (before AAV8-hSeap administration) to day 64, as described for FIGS. 2A-2C. Each circle represents an individual IgM titer.
FIGS. 9A-9B: Prolongation of dasatinib treatment from 1 week to 2 weeks improves the inhibition of IgG formation to AAV8. In the experiment described in FIG. 9A and FIG. 9B, anti-AAV8 IgG titers (median+/−SD) were measured in each mouse group from day 0 (before AAV8-hSeap administration) to day 64, as described for FIGS. 3A-3C. Each circle represents an individual IgG titer.
In the experiment described in Example 1, despite the strong inhibition of anti-AAV antibody formation observed in most of the mice, 4 out of 10 dasatinib-treated animals started to develop anti-AAV8 IgG before re-dosing (FIG. 3C, days 15-21). The presence of residual AAV8 particles in the circulation and in the tissues after the cessation of the dasatinib treatment might lead to this antibody formation. […] To this purpose, the same protocol was applied as in Example 1, but using either a 1-week or a 2-week dasatinib treatment. In addition, re-dosing was performed at a later time point (day 43 instead of day 22) to be able to observe potential antibody formation after the cessation of dasatinib treatment. This protocol is depicted in FIG. 7.
Circulating IgM and IgG directed against the AAV8 capsid were titrated in the serum samples (FIGS. 8A-8B and 9A-9B). The peaks of anti-AAV8 IgM were observed one week after first rAAV8 dosing, on day 8 for the immunized control Group 2 and on day 50 for the non-immunized control Group 1 (10/10 mice above the threshold) (FIGS. 8A-8B). […] Inhibition of IgM production was stronger in Group 4, treated with dasatinib for 2 weeks.

C57B1/6 mice = assay: transgene expression (hSEAP, hFIX) in serum following rAAV8 re-administration; format: in vivo
Protocol: FIG. 1. rAAV8 readministration in mice and Dasatinib treatment. C57B1/6 mice were intravenously dosed on study day 1 with a rAAV8 encoding the hSEAP (human secreted alkaline phosphatase) at the dose of 1E12 vg/kg. On study day 22, they received a second rAAV8 encoding hFIX (human Factor IX) at the dose of 5E13 vg/kg. […] Group 2 (immunized mice, n=10) received both rAAV8 injections. Group 3 mice (n=10) received the two rAAV8 injections and were treated by oral gavage with 50 mg/kg dasatinib twice per day for 7 days starting on the day of first rAAV8 dosing. Blood samples were collected one day before and every 7 days after the first rAAV8 treatment.
FIGS. 4A-4B. Dasatinib treatment allows transgene expression following rAAV re-administration. Serum was isolated from blood collected on study days 0, 8, 15, 21, 29 and 36 (FIG. 1). (FIG. 4A) Expression of the first transgene hSEAP was measured by chemiluminescence. (FIG. 4B) After AAV8 re-administration, expression of the second transgene hFactorIX was measured by ELISA. Mean concentrations are shown +/−SD.
To assess whether dasatinib could efficiently prevent anti-AAV antibody formation after rAAV administration and allow efficient re-administration of rAAV, a study was conducted in mice (FIG. 1). Groups of C57B1/6 mice were intravenously dosed with a first rAAV8 encoding hSEAP (human secreted alkaline phosphatase, under control of a CMV promoter) at the dose of 1E12vg/kg on study day 1. On study day 22, they were dosed with a second rAAV8 encoding hFIX (human Factor IX, under control of a CMV promoter) at the dose of 5E13 vg/kg. […]
Expression of the first transgene hSEAP and second transgene hFIX were measured in the serum samples from the experiment presented above (FIG. 1, Example 1). As expected, human SEAP was detected in the serum of mice from Groups 2 and 3, already 7 days after injection of AAV8-hSEAP on study day 1 (FIG. 4A). […] In contrast, hFIX expression was detected in the serum of all mice from the non-immunized Group 1 (mean: 2107 ng/ml) as well as in most mice from the dasatinib-treated Group 3 (average: 1398 ng/ml).

[1] = Group 4, dasatinib for 2 weeks, day 42

With Cc1nc(Nc2ncc(C(=O)Nc3c(C)cccc3Cl)s2)cc(N2CCN(CCO)CC2)n1 [dasatinib, N-(2-chloro-6-methylphenyl)-2-[[6-[4-(2-hydroxyethyl)-1-piperazinyl]-2-methyl-4-pyrimidinyl]amino]-5-thiazole carboxamide monohydrate] the “anti-AAV8 IgM titers until administration of the second rAAV8” value (mice; Group 3, dasatinib 50 mg/kg oral twice per day for 1 week) was “remained low to negative”, the “mice with negative anti-AAV8 IgG titers” value (mice; Group 3, dasatinib for 1 week, day 42) was 3/15 and the “mice with positive IgM titers to AAV8” value (mice; Group 3, dasatinib for 1 week, day 42 before AAV8 re-dosing) was “Four out of 15”. For the same compound, the “inhibition of IgM production compared with 1-week treatment” value (mice; Group 4, dasatinib for 2 weeks) was “stronger”, the “mice with IgG titers below the positivity threshold” value (mice; [1]) was 5/15 and the “mice with positive IgM titer” value (mice; [1]) was “one”. The “median anti-AAV8 IgG titer” value (mice; Group 4, dasatinib for 2 weeks, day 42, compared with 1-week Group 3) was “much lower than in Group 3”, the “anti-AAV8 IgG titers after rAAV8 re-administration” value (mice; day 64, 3 weeks after rAAV8 re-administration) was “comparable in all mouse groups” and the “human SEAP in serum” value (C57B1/6 mice; Group 3, 7 days after AAV8-hSEAP on study day 1) was “detected”. For the same compound, the “hFIX expression in serum (average)” value (C57B1/6 mice; Group 3, after AAV8-hFIX 5E13 vg/kg on day 22, dasatinib 50 mg/kg twice per day for 7 days at first rAAV8 dosing) was 1398 ng/mL and the “hFIX expression detected in serum” value (C57B1/6 mice; Group 3, after second rAAV8 on day 22) was “in most mice”.
